According to ChEMBL document CHEMBL5154879, “Induction of Genes Implicated in Stress Response and Autophagy by a Novel Quinolin-8-yl-nicotinamide QN523 in Pancreatic Cancer” (J Med Chem, 2022):
pIC50: −log10 of the molar value.

Columns and labels:
Format in all cases: functional, cell-based
MIA PaCa-2 = experiment: Cytotoxicity against human MIA PaCa-2 cells assessed as inhibition of cell growth incubated for 72 hrs by MTT assay; conditions: MIA PaCa-2, 72 h
PANC-1 = experiment: Cytotoxicity against human PANC-1 cells assessed as inhibition of cell growth incubated for 72 hrs by MTT assay; conditions: PANC-1, 72 h
BXPC-3 = experiment: Cytotoxicity against human BXPC-3 cells assessed as inhibition of cell growth incubated for 72 hrs by MTT assay; conditions: BXPC-3, 72 h

With `Cc1cnc(C(=O)Nc2cc(OCCC3CCNCC3)cc3cccnc23)cn1` the pIC50 (MIA PaCa-2) was 5.21, the pIC50 (PANC-1) was < 5.00 and the pIC50 (BXPC-3) was 5.08.

`Cc1cnc(C(=O)Nc2cc(OCCC3CCN(C(=O)OC(C)(C)C)CC3)cc3cccnc23)cn1` gave a pIC50 (MIA PaCa-2) of 5.05, a pIC50 (PANC-1) of 5.01 and a pIC50 (BXPC-3) of 5.03.

In the case of `Cc1ccc(C(=O)Nc2cccc3cccnc23)cn1`, the pIC50 (MIA PaCa-2) was < 5.00, the pIC50 (PANC-1) was < 5.00 and the pIC50 (BXPC-3) was < 5.00.

For `Cc1cnc(C(=O)Nc2cc(OCCN3CCOCC3)cc3cccnc23)cn1`, the pIC50 (MIA PaCa-2) was 6.14, the pIC50 (PANC-1) was 5.46 and the pIC50 (BXPC-3) was 5.70.

In the case of `O=C(Nc1cccc2cccnc12)c1cccnn1`, the pIC50 (MIA PaCa-2) was 5.07, the pIC50 (PANC-1) was < 5.00 and the pIC50 (BXPC-3) was < 5.00.

With `O=C(Nc1cc(OCCC2CCNCC2)cc2cccnc12)c1ncccn1` the pIC50 (MIA PaCa-2) was < 5.00, the pIC50 (PANC-1) was < 5.00 and the pIC50 (BXPC-3) was < 5.00.

With `CC(C)(C)OC(=O)NCCOc1cc(NC(=O)c2ncccn2)c2ncccc2c1` the pIC50 (MIA PaCa-2) was < 5.00, the pIC50 (PANC-1) was < 5.00 and the pIC50 (BXPC-3) was < 5.00.

`O=C(Nc1cccc2cccnc12)c1cnc(Cl)cn1` was tested, and the pIC50 (MIA PaCa-2) was 5.15, the pIC50 (PANC-1) was 5.03 and the pIC50 (BXPC-3) was < 5.00.

In the case of `Cc1cnc(C(=O)Nc2cc(F)cc3cccnc23)cn1`, the pIC50 (MIA PaCa-2) was 6.51, the pIC50 (PANC-1) was 5.68 and the pIC50 (BXPC-3) was < 5.00.

In the case of `Cc1cnc(C(=O)Nc2cccc3ncccc23)cn1`, the pIC50 (MIA PaCa-2) was < 5.00, the pIC50 (PANC-1) was < 5.00 and the pIC50 (BXPC-3) was < 5.00.

With `O=C(Nc1cc(F)cc2cccnc12)c1ncccn1` the pIC50 (MIA PaCa-2) was 6.52, the pIC50 (PANC-1) was 5.28 and the pIC50 (BXPC-3) was < 5.00.

Work on `CC(C)(C)OC(=O)NCCOc1cc(NC(=O)c2cnccn2)c2ncccc2c1` yielded a pIC50 (MIA PaCa-2) of 6.06, a pIC50 (PANC-1) of 5.02 and a pIC50 (BXPC-3) of 5.04.

In the case of `NCCOc1cc(NC(=O)c2cnccn2)c2ncccc2c1`, the pIC50 (MIA PaCa-2) was < 5.00, the pIC50 (PANC-1) was < 5.00 and the pIC50 (BXPC-3) was < 5.00.

In the case of `CC(C)(C)OC(=O)C1CCN(CCOc2cc(NC(=O)c3cnccn3)c3ncccc3c2)CC1`, the pIC50 (MIA PaCa-2) was 5.44, the pIC50 (PANC-1) was 5.02 and the pIC50 (BXPC-3) was 5.48.

In the case of `Cc1ccc2cccc(NC(=O)c3cnccn3)c2n1`, the pIC50 (MIA PaCa-2) was < 5.00, the pIC50 (PANC-1) was < 5.00 and the pIC50 (BXPC-3) was < 5.00.

For `O=C(Nc1cccc2cccnc12)c1ccc(Br)nc1`, the pIC50 (MIA PaCa-2) was < 5.00, the pIC50 (PANC-1) was < 5.00 and the pIC50 (BXPC-3) was < 5.00.

With `Cc1cnc(C(=O)Nc2cc(Cl)cc3cccnc23)cn1` the pIC50 (MIA PaCa-2) was 5.82, the pIC50 (PANC-1) was 5.75 and the pIC50 (BXPC-3) was 5.28.

`O=C(Nc1cccc2cccnc12)c1ncccn1` was tested, and the pIC50 (MIA PaCa-2) was 6.48, the pIC50 (PANC-1) was < 5.00 and the pIC50 (BXPC-3) was < 5.00.

In the case of `COc1cc(NC(=O)c2cnccn2)c2ncccc2c1`, the pIC50 (MIA PaCa-2) was 6.33, the pIC50 (PANC-1) was 5.66 and the pIC50 (BXPC-3) was 6.33.

`CN(C)CCOc1cc(NC(=O)c2cnccn2)c2ncccc2c1` was tested, and the pIC50 (MIA PaCa-2) was < 5.00, the pIC50 (PANC-1) was < 5.00 and the pIC50 (BXPC-3) was < 5.00.

In the case of `O=C(Nc1cc(Cl)cc2cccnc12)c1ncccn1`, the pIC50 (MIA PaCa-2) was 6.10, the pIC50 (PANC-1) was 5.33 and the pIC50 (BXPC-3) was < 5.00.

`O=C(Nc1cccc2cccnc12)c1cccc(Br)n1` was tested, and the pIC50 (MIA PaCa-2) was < 5.00, the pIC50 (PANC-1) was < 5.00 and the pIC50 (BXPC-3) was < 5.00.

With `Cc1cnc(C(=O)Nc2cc(OCCNC(=O)OC(C)(C)C)cc3cccnc23)cn1` the pIC50 (MIA PaCa-2) was 6.17, the pIC50 (PANC-1) was 5.66 and the pIC50 (BXPC-3) was 5.44.
